Data from PubChem BioAssay (NCI).
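Cells were grown in 96-well plates and exposed to each compound for 48 hours at five concentrations; endpoints were interpolated linearly between bracketing concentrations, or set to the highest concentration if not reached. GI50 marks 50% less growth. The concentration for full growth arrest is given as TGI.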

Tests used:
Assay in all cases: inhibition of tumour cell growth, NCI panel, 48 h
[1] = system: A498 renal
[2] = system: OVCAR-8 ovarian
[3] = system: CCRF-CEM leukemia
[4] = system: U251 CNS
[5] = system: UACC-62 melanoma
[6] = system: 786-0 renal
[7] = system: HCC-2998 colon
[8] = system: MOLT-4 leukemia
[9] = system: A549 NSCLC
[10] = system: SN12C renal
[11] = system: NCI/ADR-RES ovarian
[12] = system: HOP-62 NSCLC
[13] = system: NCI-H522 lung
[14] = system: KM12 colon
[15] = system: SK-MEL-2 melanoma
[16] = system: IGROV1 ovarian
[17] = system: SW-620 colon
[18] = system: MDA-MB-435
[19] = system: PC-3 prostate
[20] = system: SF-539 CNS
[21] = system: NCI-H226 lung
[22] = system: SNB-19 CNS
[23] = system: MCF7 breast
[24] = system: COLO 205 colon
[25] = system: NCI-H460 lung
[26] = system: M14 melanoma
[27] = system: MDA-MB-231 breast
[28] = system: HOP-92 NSCLC
[29] = system: SK-MEL-5 melanoma
[30] = system: HCT-15 colon
[31] = system: OVCAR-5 ovarian
[32] = system: HT29 colon
[33] = system: ACHN renal
[34] = system: SK-OV-3 ovarian
[35] = system: UACC-257 melanoma
[36] = system: DU-145 prostate
[37] = system: EKVX NSCLC
[38] = system: HL-60(TB) leukemia
[39] = system: RXF 393 renal
[40] = system: K-562 leukemia
[41] = system: OVCAR-4 ovarian
[42] = system: NCI-H23 lung
[43] = system: SF-295 CNS
[44] = system: SNB-75 CNS
[45] = system: LOX IMVI melanoma
[46] = system: BT-549 breast
[47] = system: RPMI-8226 leukemia
[48] = system: HCT-116 colon
[49] = system: SK-MEL-28 melanoma
[50] = system: HS 578T breast
[51] = system: UO-31 renal
[52] = system: CAKI-1 renal
[53] = system: TK-10 renal
[54] = system: T-47D breast
[55] = system: MALME-3M melanoma
[56] = system: SF-268 CNS
[57] = system: OVCAR-3 ovarian

Compound: COC1C(CO)OC(n2c3ccccc3c3c4c(c5c6ccccc6[nH]c5c32)C(=O)NC4=O)C(OC(=O)C(N)CCCCN)C1O (centres undefined)
- GI50 [1]: 5 nM
- TGI [1]: 230 nM
- GI50 [2]: 119 nM
- TGI [2]: 6970 nM
- GI50 [3]: 38.7 nM
- TGI [3]: 2830 nM
- GI50 [4]: 12.8 nM
- TGI [4]: 311 nM
- GI50 [5]: 28.1 nM
- TGI [5]: 185 nM
- GI50 [6]: 111 nM
- TGI [6]: 3300 nM
- GI50 [7]: 173 nM
- TGI [7]: 1500 nM
- GI50 [8]: 56 nM
- TGI [8]: 13300 nM
- GI50 [9]: 962 nM
- TGI [9]: 9040 nM
- GI50 [10]: 23.7 nM
- TGI [10]: 56.2 nM
- GI50 [11]: 1400 nM
- TGI [11]: 21900 nM
- GI50 [12]: 144 nM
- TGI [12]: 2400 nM
- GI50 [13]: 15.7 nM
- TGI [13]: 440 nM
- GI50 [14]: 52.9 nM
- TGI [14]: 599 nM
- GI50 [15]: 505 nM
- TGI [15]: 1710 nM
- GI50 [16]: 102 nM
- TGI [16]: 2930 nM
- GI50 [17]: 10.8 nM
- TGI [17]: 1670 nM
- GI50 [18]: 123 nM
- TGI [18]: 1430 nM
- GI50 [19]: 116 nM
- TGI [19]: 2580 nM
- GI50 [20]: 17.3 nM
- TGI [20]: 139 nM
- GI50 [21]: 37.1 nM
- TGI [21]: 291 nM
- GI50 [22]: 88.9 nM
- TGI [22]: 14200 nM
- GI50 [23]: 79.6 nM
- TGI [23]: 5450 nM
- GI50 [24]: 96.3 nM
- TGI [24]: 5670 nM
- GI50 [25]: 1060 nM
- TGI [25]: 3780 nM
- GI50 [26]: 132 nM
- TGI [26]: 3230 nM
- GI50 [27]: 50.4 nM
- TGI [27]: 1010 nM
- GI50 [28]: 35.3 nM
- TGI [28]: 735 nM
- GI50 [29]: 42.6 nM
- TGI [29]: 125 nM
- GI50 [30]: 1920 nM
- TGI [30]: 9530 nM
- GI50 [31]: 386 nM
- TGI [31]: 2800 nM
- GI50 [32]: 357 nM
- TGI [32]: 12900 nM
- GI50 [33]: 22.6 nM
- TGI [33]: 169 nM
- GI50 [34]: 225 nM
- TGI [34]: 3910 nM
- GI50 [35]: 437 nM
- TGI [35]: 5300 nM
- GI50 [36]: 168 nM
- TGI [36]: 3210 nM
- GI50 [37]: 592 nM
- TGI [37]: 3150 nM
- GI50 [38]: 5.92 nM
- TGI [38]: 59.7 nM
- GI50 [39]: 53.7 nM
- TGI [39]: 815 nM
- GI50 [40]: 30.8 nM
- TGI [40]: 8990 nM
- GI50 [41]: 593 nM
- TGI [41]: 5710 nM
- GI50 [42]: 200 nM
- TGI [42]: 1530 nM
- GI50 [43]: 165 nM
- TGI [43]: 1950 nM
- GI50 [44]: 156 nM
- TGI [44]: 3660 nM
- GI50 [45]: 5 nM
- TGI [45]: 35.1 nM
- GI50 [46]: 165 nM
- TGI [46]: 2480 nM
- GI50 [47]: 1330 nM
- TGI [47]: 11600 nM
- GI50 [48]: 83.4 nM
- TGI [48]: 50000 nM
- GI50 [49]: 165 nM
- TGI [49]: 2260 nM
- GI50 [50]: 299 nM
- TGI [50]: 2260 nM
- GI50 [51]: 215 nM
- TGI [51]: 903 nM
- GI50 [52]: 23.2 nM
- TGI [52]: 65.5 nM
- GI50 [53]: 371 nM
- TGI [53]: 1460 nM
- GI50 [54]: 14.5 nM
- TGI [54]: 187 nM
- GI50 [55]: 24.5 nM
- TGI [55]: 157 nM
- GI50 [56]: 23.2 nM
- TGI [56]: 721 nM
- GI50 [57]: 144 nM
- TGI [57]: 1160 nM
